Patent US9624213B2 (Plexxikon Inc., priority 2011, dated 2017)

Target: B-Raf V600E (Homo sapiens (Human), UniProt P15056, V600E)
Assay: B-Raf V600E kinase biochemical activity (AlphaScreen, biotin-MEK1 substrate)
Details: 100 μM ATP
Experimental: Assays for biochemical and cell based activity are known in the art, for example, as described in PCT publication WO 2007/002433, the disclosure of which is hereby incorporated by reference as it relates to such assays. For example, the biochemical activity IC50 values are determined with respect to inhibition of B-Raf V600E kinase activity or p-Erk kinase activity, where inhibition of phosphorylation of a peptide substrate is measured as a function of compound concentration. Compounds to be tested are diluted in dimethyl sulfoxide to a concentration of 0.1 mM. These are serially diluted 15 μL into 30 μL of dimethyl sulfoxide seven times in 96 well plates for a total of 8 dilution points, and for each dilution point 1 μL is added to a well of an assay plate. Plates are prepared such that each well in a 384 well plate contains 1 μL of compound in 10 μL volume with 0.1 ng Raf enzyme (i.e. any of B-Raf, c-Raf-1 or B-Raf V600E, Upstate Biotechnology or prepared by methods known to one of skill in the art), 50 mM HEPES, pH 7.0, 50 mM NaCl, 2 mM MgCl2, 1 mM MnCl2, 0.01% Tween-20, 1 mM DTT, and 100 nM biotin-MEK1 as substrate. The reaction is started with addition of 10 μL of 200 μM ATP (i.e. final 100 μM ATP). After incubation of the kinase reaction for 45 minutes at room temperature, 5 μL/well of Stop Solution is added (25 mM Hepes pH 7.5, 100 mM EDTA, 0.01% BSA with donor beads (Streptavidin coated beads, Perkin Elmer), acceptor beads (Protein A coated, Perkin Elmer), and anti phosphor MEK1/2 antibody (CellSignal), each at final concentration 10 μg/mL). The plates are incubated for 3 hours at room temperature and read on Envision reader (Perkin Elmer). Phosphorylation of Mek1 results in binding of the anti-phosphor-MEK1/2antibody and association of the donor and acceptor beads such that signal correlates with kinase activity. The signal vs. compound concentration is used to determine the IC50.

Sequence of B-Raf V600E (P15056 whole entry V600E): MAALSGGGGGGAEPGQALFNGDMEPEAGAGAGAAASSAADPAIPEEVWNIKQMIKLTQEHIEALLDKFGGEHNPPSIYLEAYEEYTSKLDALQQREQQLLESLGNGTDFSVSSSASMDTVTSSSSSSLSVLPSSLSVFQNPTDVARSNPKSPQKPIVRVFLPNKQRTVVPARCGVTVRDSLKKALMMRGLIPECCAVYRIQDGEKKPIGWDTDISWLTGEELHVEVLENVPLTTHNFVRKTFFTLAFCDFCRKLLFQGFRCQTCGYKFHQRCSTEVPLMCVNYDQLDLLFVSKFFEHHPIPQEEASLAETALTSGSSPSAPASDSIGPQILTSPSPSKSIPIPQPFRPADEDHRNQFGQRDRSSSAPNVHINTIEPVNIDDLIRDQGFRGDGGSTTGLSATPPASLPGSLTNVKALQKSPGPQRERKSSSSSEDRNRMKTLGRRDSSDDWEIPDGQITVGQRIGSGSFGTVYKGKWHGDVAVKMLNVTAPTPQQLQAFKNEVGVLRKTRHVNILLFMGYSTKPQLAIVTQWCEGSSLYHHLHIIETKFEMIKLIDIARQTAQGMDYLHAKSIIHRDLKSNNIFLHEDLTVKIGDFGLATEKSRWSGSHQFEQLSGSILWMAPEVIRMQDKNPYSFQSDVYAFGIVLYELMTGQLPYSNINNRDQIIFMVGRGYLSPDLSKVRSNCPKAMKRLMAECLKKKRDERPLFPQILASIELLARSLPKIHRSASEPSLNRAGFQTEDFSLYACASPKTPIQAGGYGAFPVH

IC50, < 0.1 µM:
Cn1cc(-c2cnc3[nH]cc(C(=O)c4cccc(NS(=O)(=O)CC5CC5)c4F)c3c2)cn1 [Compound P-0042, 1-cyclopropyl-N-[2-fluoro-3-[5-(1-methylpyrazol-4-yl)-1H-pyrrolo[2,3-b]pyridine-3-carbonyl]phenyl]methanesulfonamide]
CN(C)S(=O)(=O)Nc1ccc(F)c(C(=O)c2c[nH]c3ncc(-c4ccc(C5(C#N)CC5)cc4)cc23)c1F [Compound P-0237, 5-[4-(1-cyanocyclopropyl)phenyl]-3-[3-(dimethylsulfamoylamino)-2,6-difluoro-benzoyl]-1H-pyrrolo[2,3-b]pyridine]
CCN(C)S(=O)(=O)Nc1ccc(F)c(C(=O)c2c[nH]c3ncc(-c4ccc(C5(C#N)CC5)cc4)cc23)c1F [Compound P-0239, 5-[4-(1-cyanocyclopropyl)phenyl]-3-[3-[[ethyl(methyl)sulfamoyl]amino]-2,6-difluoro-benzoyl]-1H-pyrrolo[2,3-b]pyridine]
N#CC1(c2ccc(-c3cnc4[nH]cc(C(=O)c5c(F)ccc(NS(=O)(=O)N6CCCC6)c5F)c4c3)cc2)CC1 [Compound P-0248, N-[3-[5-[4-(1-cyanocyclopropyl)phenyl]-1H-pyrrolo[2,3-b]pyridine-3-carbonyl]-2,4-difluoro-phenyl]pyrrolidine-1-sulfonamide]
